Among the data in patent publication US4937360A, “N-substituted amide derivatives useful for treating liver diseases” (Taisho Pharmaceutical Co., Ltd., priority 1988, dated 1990) are GPT and Inhibition % values, retold here.

The subject of assay [1] is acute liver injury induced by carbon tetrachloride. Put plainly: Effect on acute liver injury induced by carbon tetrachloride (serum GPT). Format: in vivo, male ICR strain mice. The note with it: oral, mice, 18 hours; for GPT: mean ± S.E.; for Inhibition %: serum GPT vs control. Here is the method: (§1) Effect on acute liver injury induced by carbon tetrachloride Ten male ICR strain mice (six weeks old, about 30 g of body weight) per group were used for the test. Suspensions of the compound, obtained in Example 1, in 5% gum arabic solution in various concentrations were prepared for test drugs. A 5% gum arabic solution was used as a control. The test drugs and a 5% gum arabic solution were each administered orally in an amount of 10 ml/kg of body weight to different animals. After standing for 18 hours, the animals were anesthetized with ether, the blood was drawn and centrifuged for measuring the serum GPT value. Malotilate served as a comparative test drug.

For assay [2], the system named is acute liver injury induced by D-galactosamine. As to the kind of experiment: Effect on acute liver injury induced by D-galactosamine (serum GPT). The note with it: oral, rats, 18 hours; for GPT: mean ± S.E.; for Inhibition %: serum GPT vs control. Format: in vivo, male Wister strain rats. Here is the method: as §1, with “D-galactosamine Six” for “carbon tetrachloride Ten”, “Wister” for “ICR”, “rats (eight” for “mice (six”, “200” for “30”, “5” for “10”

As for `CC(=O)N(C)CC(=O)c1ccc2c(c1)OCO2` [A, N-methyl-N-(3,4-methylenedioxyphenacyl)acetamide], the GPT in assay [1] (10 mg/kg) was 2634 ± 380 IU/1; in assay [1] (30 mg/kg) it was 636 ± 245 IU/1; in assay [1] (100 mg/kg) it was 39 ± 3 IU/1; in assay [2] (30 mg/kg) it was 15972 ± 2810 IU/1; in assay [2] (100 mg/kg), 7440 ± 757 IU/1; in assay [2] (300 mg/kg) it was 4415 ± 1539 IU/1. Moreover, the Inhibition % in assay [1] (10 mg/kg) is 56%; in assay [1] (30 mg/kg), 89%; in assay [1] (100 mg/kg), 100%; in assay [2] (30 mg/kg) it was 22.5%; in assay [2] (100 mg/kg) it was 64.1%; in assay [2] (300 mg/kg), 78.8%.
For the molecule `CC(C)OC(=O)C(C(=O)OC(C)C)=C1SC=CS1` [B, Malotilate], the GPT is reported as 4291 ± 1012 IU/1 in assay [1] (10 mg/kg); 1778 ± 310 IU/1 in assay [1] (30 mg/kg); 148 ± 40 IU/1 in assay [1] (100 mg/kg); 19240 ± 1183 IU/1 in assay [2] (30 mg/kg); 11190 ± 777 IU/1 in assay [2] (100 mg/kg); 15557 ± 1669 IU/1 in assay [2] (300 mg/kg). In addition, the Inhibition % in assay [1] (10 mg/kg) is 28%; in assay [1] (30 mg/kg), 71%; in assay [1] (100 mg/kg) it was 98%; in assay [2] (30 mg/kg) it was 6.4%; in assay [2] (100 mg/kg), 45.6%; in assay [2] (300 mg/kg), 24.6%.
